Holding throughout (test): NCI tumour cell line growth inhibition, 48 h
In experiment [1] the test system is DLD-1 colon.
Experiment [2] relates to DMS 114 small cell lung.
Experiment [3] concerns HOP-18 NSCLC.
Experiment [4] concerns SNB-19 CNS.
In experiment [5] the test system is KM20L2 colon.
The test system of experiment [6] is OVCAR-4 ovarian.
Experiment [7] concerns SK-MEL-5 melanoma.
Experiment [8] relates to BT-549 breast.
In experiment [9] the test system is HS 578T breast.
Experiment [10] concerns NCI/ADR-RES ovarian.

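Values below derive from 48-hour exposures of cells grown in 96-well plates, with endpoints linearly interpolated between the two concentrations bracketing the appropriate inhibition level. Abbreviation: GI50, concentration required for 50% inhibition of growth. TGI denotes the concentration required for complete inhibition of growth.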

Take `O=C1[C@H]2C(c3ccccc3)=NN(C(=O)c3ccccc3)[C@H]2C(=O)N1c1ccccc1`: the TGI in experiment [1], in [2], in [3] and in [4] was greater than 100 µM each time.
On to `N#Cc1c2c(c(N=[N+]=[N-])n3c1nc1ccccc13)CCCC2`, for which the TGI in experiment [1] is 2.94 µM; in experiment [2], 4.37 µM; in experiment [5] it was 4.6 µM; in experiment [6] it was 5.33 µM; in experiment [7], 32.3 µM; in [4], 7.84 µM.
For `CCOC(=O)/C=C1\Nc2ccccc2C(c2ccccc2)=NC1OC(C)=O` (configuration not stated), the TGI in [1], in [2], in experiment [6] and in experiment [7] was greater than 100 µM each time.
`CCC1OCCN1C(C)C` (configuration not stated): the TGI in experiment [1], in experiment [2], in [5], in experiment [7] and in experiment [4] was greater than 100 µM each time.
With `COc1cc2ccn3c4cc(OC)c(OC)cc4cc3c2cc1OC`, the TGI in [1], in experiment [2], in [5], in [6] and in [4] was greater than 100 µM throughout.
In the case of `CC1CCC(O)C(C(O)CC2CC(=O)N(C)C(=O)C2)C1` (configuration not stated), the TGI in experiment [1], in [2], in experiment [3], in [5], in [6] and in [4] was greater than 100 µM each time.
In the case of `Clc1ccc2c(Cl)ncnc2c1`, the TGI in [1], in [5], in [6], in experiment [7] and in experiment [4] was greater than 100 µM each time.
Consider `COC(=O)c1c(C)oc2ccc(OC(C)=O)cc12`, for which the TGI in [2], in experiment [5], in experiment [6], in [7] and in experiment [4] was greater than 100 µM throughout.
As for `CC(C)OP(=O)(OC(C)C)C(N(C)C)P(=O)(OC(C)C)OC(C)C.[Cl][Sn]([Cl])([Cl])[c]1ccccc1`, the GI50 in experiment [1] was 2.89 µM; in experiment [2], 3.68 µM; in [3] it was greater than 100 µM; in [5], 2.32 µM; in experiment [7], 1.65 µM; in experiment [4] it was 17.8 µM. Moreover, the TGI was greater than 100 µM in experiment [1]; 23.1 µM in experiment [2]; greater than 100 µM in [3]; 15.8 µM in [5]; 3.16 µM in [7]; greater than 100 µM in [4].
Take `Cn1c(=O)c2c3oc(=O)cc(O)c3c(=O)n3c4ccccc4n(c1=O)c23`: the TGI in experiment [1] was greater than 100 µM; in [3], greater than 100 µM; in experiment [6] it was greater than 100 µM; in experiment [7] it was 81 µM; in experiment [4] it was greater than 100 µM.
In the case of `CCOP(=O)(OCC)/C(C#N)=C\c1cccc2ccccc12`, the TGI was greater than 100 µM in [8]; 57.7 µM in experiment [9]; greater than 100 µM in [5]; greater than 100 µM in experiment [10]; greater than 100 µM in [6]; greater than 100 µM in experiment [7]. In addition, the TGI in experiment [4] was greater than 100 µM.
As for `COc1ccccc1C(=O)c1cnc(NC2CCN(S(C)(=O)=O)CC2)nc1N`, the GI50 in experiment [8] was greater than 13.3 µM; in [9] it was 11.4 µM; in [10] it was greater than 25 µM; in experiment [6] it was 12.4 µM; in experiment [7], 4.84 µM; in [4] it was 4.71 µM. In addition, the TGI in experiment [8], in experiment [9], in experiment [10], in experiment [6], in experiment [7] and in [4] was greater than 25 µM in each case.
`c1ccc2c(c1)nc(NCCN1CCNCC1)c1c3ccccc3[nH]c21`: the GI50 in [8] was 1.53 µM; in experiment [9], 1.19 µM; in experiment [10], 1.52 µM; in [6] it was 0.379 µM; in experiment [7], 1.27 µM; in experiment [4], 0.381 µM. In addition, the TGI was 4.04 µM in experiment [8]; 4.67 µM in experiment [9]; 7.63 µM in [10]; 2.24 µM in [6]; 2.61 µM in experiment [7]; 3.15 µM in [4].
Turning to `COc1ccc2c(c1O)[C@@]13C=C(O)C(=O)C=C1[C@@H](C2)N(C)CC3`, the TGI in experiment [8], in experiment [9], in experiment [10], in [6], in experiment [7] and in experiment [4] was greater than 100 µM each time.
For the molecule `CC(=O)[CH-]C(=O)c1ccccc1.CC(=O)[CH-]C(=O)c1ccccc1.[O]=[U+2]=[O]`, the GI50 in [1] was 29.7 µM; in [5] it was 37.1 µM; in experiment [6] it was 40.3 µM; in [7], 26.8 µM. Besides, the TGI in [1], in [5], in experiment [6] and in experiment [7] was greater than 100 µM each time.
For the molecule `COc1ccc(C[C@H]2C[C@@H](O)[C@@H](C)C/C=C/Cc3cccc(O)c3C(=O)O2)cn1`, the GI50 was 20.7 µM in [8]; 14.4 µM in experiment [9]; 19.1 µM in [10]; 23.7 µM in experiment [6]; 17.6 µM in [7]; 38.9 µM in experiment [4]. Moreover, the TGI was 48.8 µM in [8]; 36.7 µM in [9]; 48.8 µM in experiment [10]; 74.1 µM in experiment [6]; 35.1 µM in [7]; greater than 100 µM in experiment [4].
Take `Cc1cc(CS(=O)(=O)/C=C/c2ccccc2[N+](=O)[O-])c(CS(=O)(=O)/C=C/c2ccccc2[N+](=O)[O-])cc1C`: the TGI in [8] was 44.4 µM; in [2], greater than 100 µM; in experiment [9] it was greater than 62.5 µM; in [5] it was greater than 100 µM; in experiment [10], greater than 100 µM; in [6], 32.3 µM. For the same molecule, the TGI in [7] is greater than 100 µM; in experiment [4], greater than 83.1 µM.

These data come from PubChem BioAssay (NCI).
